# Values of other authors, collected in patent US20160034667A1, “TAILORED DRUG THERAPIES AND METHODS AND SYSTEMS FOR DEVELOPING SAME” (COMPANION DX REFERENCE LAB, LLC, priority 2014, published 2016).
# Like-named read-outs stand apart in the source and are kept apart here.
# Legend:
# [1] = tested on: NSCLC patients with drug-sensitive EGFR mutations
# [2] = not given; remark: listed apart in the source
# [3] = tested on: molecularly unselected NSCLC patients; settings: FIG. 8 (A)
# CYP2D6 = CYP2D6 (Homo sapiens, UniProt P10635)
# Sequence of CYP2D6 (P10635 whole entry): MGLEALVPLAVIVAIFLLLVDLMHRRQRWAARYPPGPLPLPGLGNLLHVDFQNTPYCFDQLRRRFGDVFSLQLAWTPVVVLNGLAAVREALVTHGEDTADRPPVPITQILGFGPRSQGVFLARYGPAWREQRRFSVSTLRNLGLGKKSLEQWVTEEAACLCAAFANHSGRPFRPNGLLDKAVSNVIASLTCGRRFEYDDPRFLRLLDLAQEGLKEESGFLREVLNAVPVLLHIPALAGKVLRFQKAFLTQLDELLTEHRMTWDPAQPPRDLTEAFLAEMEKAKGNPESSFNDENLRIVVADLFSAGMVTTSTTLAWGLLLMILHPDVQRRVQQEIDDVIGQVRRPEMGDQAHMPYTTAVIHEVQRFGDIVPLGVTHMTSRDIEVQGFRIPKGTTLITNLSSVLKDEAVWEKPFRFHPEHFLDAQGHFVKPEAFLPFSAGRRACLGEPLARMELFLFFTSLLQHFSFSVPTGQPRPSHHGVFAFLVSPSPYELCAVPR
# [4] = printed on the line of the peak range
# [5] = printed on the line of the trough range
Compound,t1/2 (in vivo),Critical (in vivo),Therapeutic Range (in vivo),also measured
NC[C@H]1O[C@H](O[C@H]2[C@H](O)[C@@H](O[C@H]3O[C@H](CO)[C@@H](O)[C@H](N)[C@H]3O)[C@H](N)C[C@@H]2N)[C@H](N)C[C@@H]1O [Tobramycin],2 h,,,"Therapeutic Range, peak: peak 4-10 mg/L,; Critical [4]: >12 mg/L,; Critical [5]: >5 mg/L; Therapeutic Range, trough: trough 0.5-1.5 mg/L"
Gentamicin,2 h,>12 mg/L,,"Therapeutic Range, peak: peak 4-10 mg/L,; Therapeutic Range, trough: trough 1-2 mg/L"
Cn1c(=O)c2[nH]cnc2n(C)c1=O [Theophylline],3 to 9 h,,10 to 20 mg/L,
CCC1(c2ccccc2)C(=O)NCNC1=O [Primidone],6 to 12 h,>15 mg/L,5 to 12 mg/L,
CN[C@H](CC(C)C)C(=O)N[C@H]1C(=O)N[C@@H](CC(N)=O)C(=O)N[C@H]2C(=O)N[C@H]3C(=O)N[C@H](C(=O)N[C@H](C(=O)O)c4cc(O)cc(O)c4-c4cc3ccc4O)[C@H](O)c3ccc(c(Cl)c3)Oc3cc2cc(c3O[C@@H]2O[C@H](CO)[C@@H](O)[C@H](O)[C@H]2O[C@H]2C[C@](C)(N)[C@H](O)[C@H](C)O2)Oc2ccc(cc2Cl)[C@H]1O [Vancomycin],5.0 to 6.5 h,,,"Therapeutic Range, peak: peak 30-40 mg/L,; Critical [4]: >50 mg/L,; Critical [5]: >15 mg/L; Therapeutic Range, trough: trough 5-15 mg/L"
O=C(O)c1ccccc1O [Salicylate],2 to 19 h,>450 mg/L,100 to 300 mg/L,
C#Cc1cccc(Nc2ncnc3cc(OCCOC)c(OCCOC)cc23)c1 [erlotinib],,,,response in patients with drug-sensitive EGFR mutations at Exon 19 and 21 [1]: significantly better response
C[C@H]1O[C@@H](O[C@H]2[C@@H](O)C[C@H](O[C@H]3[C@@H](O)C[C@H](O[C@H]4CC[C@@]5(C)[C@H](CC[C@@H]6[C@@H]5C[C@@H](O)[C@]5(C)[C@@H](C7=CC(=O)OC7)CC[C@]65O)C4)O[C@@H]3C)O[C@@H]2C)C[C@H](O)[C@@H]1O [Digoxin],33 to 51 h,,,
CCCC(CCC)C(=O)O [Valproic acid],8 to 15 h,>200 mg/L,50 to 100 mg/L,
CCC1(c2ccccc2)C(=O)NC(=O)NC1=O [Phenobarbital],72 to 100 h,,,
CCN(CC)CC(=O)Nc1c(C)cccc1C [Lidocaine],,>8.0 mg/L,1.5 to 5 mg/L,
NC(=O)N1c2ccccc2C=Cc2ccccc21 [Carbamazepine],10 to 48 h,>15 mg/L,8 to 12 mg/L,
NCC[C@H](O)C(=O)N[C@@H]1C[C@H](N)[C@@H](O[C@H]2O[C@H](CN)[C@@H](O)[C@H](O)[C@H]2O)[C@H](O)[C@H]1O[C@H]1O[C@H](CO)[C@@H](O)[C@H](N)[C@H]1O [Amikacin],2.5 h,>40 mg/L,,"Therapeutic Range, peak: peak 20-30 mg/L,; Therapeutic Range, trough: trough 1-8 mg/L"
O=C1NC(=O)C(c2ccccc2)(c2ccccc2)N1 [Phenytoin],6 to 24 h,>25 mg/L,10 to 20 mg/L,
C=C[C@H]1C[N@@]2CC[C@H]1C[C@@H]2[C@@H](O)c1ccnc2ccc(OC)cc12 [Quinidine],,>7 mg/L,,
[Li] [Lithium],19 h,>2.0 mmol/L,0.5 to 1.5 mmol/L,
CC(=O)Nc1ccc(O)cc1 [Acetaminophen],1 to 3 h,>40 mg/L,10 to 25 mg/L,
"CCN(CC)CCNC(=O)c1ccc(NC(C)=O)cc1 [NAPA, N-acetylprocainamide]",6 to 12 h,,,
"COc1cc2ncnc(Nc3ccc(F)c(Cl)c3)c2cc1OCCCN1CCOCC1 [gefitinib, Gefitinib]",,,,"reduction of area under the curve of gefitinib ([2]; co-medication with CYP3A4 inducer rifampin): 83%; exposure to gefitinib ([2]; co-medication with CYP3A4 inhibitor (intraconazole), health men): increases exposure; progression free survival rate [3]: no detectable change; inhibition of CYP2D6 activity (CYP2D6): weak inhibitor"
